Series [1] relates to porcine liver esterase. Nature of the series: Decay in the presence of porcine liver esterase. The note with it: 25° C., phosphate buffer pH 7.4, porcine liver esterase suspension added. The series is classed as in vitro ADME. As to the method:
This example describes the determination of the halflife of the Compound produced in Example 24 in the absence and presence of porcine liver esterase at 25° C. and pH 7.4.
A 0.009 M ethanolic stock solution of O2—[S-acetyl-(2-mercaptoethyl)]1-[(2-carboxylato)pyrrolidin-1-yl]diazen-1-ium-1,2-diolate [S-acetyl-(2-mercapto-ethyl)]ester was prepared. The decay of this compound was monitored at 25° C. as 1.5×10^−4 M solutions in a 4 ml quartz cuvette containing 3 ml of phosphate buffer (pH 7.4) and […] of stock solution. The decay of the 232 nm chromophore was monitored on the ultraviolet spectrophotometer. The halflife was estimated as 3.2 hr.
A second set of experiments was carried out using the above parameters to measure the decay after addition of 5 ml of porcine liver esterase suspension. The half-life for the esterase reaction was 8 min at 25° C.

Series [2] relates to glutathione S-transferase (GST). The note with it: FIG. 2.
Series [3] can be described thus: Cleavage of O2-glucopyranosyl diazeniumdiolate to DEA/NO anion and NO as a function of pH. It is filed as physicochemical.
A short description of series [4]: NO release in the presence or absence of glutathione, chemiluminescence. The note with it: 37° C. How it is done:
This Example illustrates the regeneration of NO from O^2-(2,4-dinitrophenyl) 1-(N,N-diethylamino)diazen-1-ium-1,2-diolate in the presence, but not the absence, of glutathione.
A solution containing 1 mM glutathione (GSH) in 10 mM phosphate buffer was degassed by purging with argon for 10 min, whereupon a 3 ml aliquot was mixed with 3 μl of a dioxane solution that was 2 mM in O^2-(2,4-dinitrophenyl) 1-(N,N-diethylamino)diazen-1-ium-1,2-diolate. NO release was monitored by chemiluminescence while the mixture was held at 37° C. […] Total NO generation during the first 112 min was approximately 9 nmol. Assuming that […] of NO is generated per mol of O^2-(2,4-dinitrophenyl) 1-(N,N-diethylamino)diazen-1-ium-1,2-diolate, this 9 nmol corresponds to roughly 75% of the theoretical yield.
The nucleophilic glutathione reacted with the O^2-(2,4-dinitrophenyl) 1-(N,N-diethylamino)diazen-1-ium-1,2-diolate to produce NO according to the equation shown below.

For series [5], the system named is glutathione S-transferase. Nature of the series: Glutathione S-transferase kinetics (UV absorbance at 380 nm). The series is classed as biochemical. The note with it: 25° C., 0.1 M phosphate buffer pH 7.4, enzyme 0.7 μg/ml, glutathione 1.4 mM, diazeniumdiolate 50–100 μM. From the text: The following examples further illustrate the present invention and, of course, should not be construed as in any way limiting its scope. With respect to the following examples, NO was obtained from Matheson Gas Products (Montgomeryville, Pa.), β- and α-glycosidases and porcine liver esterase were obtained from Sigma Chemical Co. (St, Louis, Mo.), polyurethane (Tecoflex) was obtained from Thermedics Inc. (Woburn, Mass.), and glucose and mannose were obtained from Aldrich Chemical Co. (Milwaukee, Wis.). Proton NMR spectra were recorded with a 300 MHz Varian Unity Plus or a Varian XL-200 NMR spectrometer. Spectra were obtained in deuterochloroform for covalent compounds and in D2O for salts. Chemical shifts are reported in parts per million (ppm) downfield from TMS. Low and high resolution mass spectral (MS) measurements were carried out on a VG-Micromass Model 7070 spectrometer. Unless otherwise indicated, MS data were collected in the electron impact mode with sample introduction via direct probe. Ultraviolet (UV) spectra were run as solutions in water or 0.01 M NaOH on an HP 8451A Diode Array spectrophotometer. Glutathione S-transferase kinetics were monitored by measuring the change in UV absorbance at 380 nm with a Beckman DU 640 spectrophotometer. Chemiluminescence measurements were done on a Thermal Energy Analyzer Model 502A instrument (Thermedics, Inc., Woburn, Mass.). […]

A short description of series [6]: Kinetics of reaction with sodium methoxide in methanol (HPLC). The note with it: reaction with excess NaOMe in methanol; disappearance monitored by HPLC. The series is classed as physicochemical. From the text: This Example illustrates the kinetics of reaction of O^2-(2,4-dinitrophenyl) 1-(N,N-diethylamino)diazen-1-ium-1,2-diolate with sodium methoxide in methanol. The kinetics of this reaction show the rate of conversion of O^2-(2,4-dinitrophenyl) 1-(N,N-diethylamino)diazen-1-ium-1,2-diolate to 1-(N,N-diethylamino)diazen-1-ium-1,2-diolate ion in alkaline or nucleophilic environments.
An excess of NaOMe was used in the reactions; aliquots were collected at intervals and quenched with 0.1 N HCl in methanol. […] This was determined by plotting log[O^2-(2,4-dinitrophenyl) 1-(N,N-diethylamino)diazen-1-ium-1,2-diolate] vs. time to find kobs′ at four different concentrations of NaOMe.

Setting [7] is: 1 mM GSH in 10 mM phosphate buffer.

SMILES strings stand for the structures.

Take `CC(=O)SCCON=[N+]([O-])N1CCCC1C(=O)OCCSC(C)=O` (stereo not shown) [Example 24, O^2—[S-acetyl-(2-mercaptoethyl)]1-[(2-carboxylato)pyrrolidin-1-yl]diazen-1-ium-1,2-diolate [S-acetyl-(2-mercaptoethyl)]ester]: in series [1], the “half-life for the esterase reaction” value is 8 min.
For `O=[N+]([O-])c1ccc(ON=[N+]([O-])N2CCCC2)c([N+](=O)[O-])c1` [Example 8, O^2-(2,4-dinitrophenyl) 1-(pyrrolidin-1-yl)diazen-1-ium-1,2-diolate], in series [2], the “relative NO release rate versus time with GST” value is on record as “catalysis of NO release”.
In the case of `CCN(CC)[N+]([O-])=NOC1O[C@H](CO)[C@@H](O)[C@H](O)[C@H]1O` (stereo partly shown) [Example 31, O^2-glucopyranosyl 1-(N,N-diethylamino)diazen-1-ium-1,2-diolate], the “cleavage to DEA/NO anion, then to NO” value was “only extremely slowly” in series [3] (pH 3) and “extremely rapidly” in series [3] (pH 13).
On to `O=C([O-])C1CCCN1[N+]([O-])=N[O-].[Na+].[Na+]` (stereo not shown) [Example 19, disodium 1-[(2-carboxylato)pyrrolidin-1-yl]diazen-1-ium-1,2-diolate], for which the melting point was 250 °C (dec.).
On to `CCN(CC)[N+]([O-])=NOc1ccc([N+](=O)[O-])cc1[N+](=O)[O-]` [Example 1, O^2-(2,4-dinitrophenyl) 1-(N,N-diethylamino)diazen-1-ium-1,2-diolate], for which, in series [4] (setting [7]), the “time NO generation continued at readily detectable levels” value is “approximately 100 minutes” and the “time of peak nitric oxide generation after reaction was initiated” value is on record as “approximately 15 minutes”. Also, the “total NO generation during the first 112 min” value in series [4] (1 mM GSH in 10 mM phosphate buffer, 3 μl of 2 mM solution in 3 ml) was “approximately 9 nmol”. The “NO generated as share of the theoretical yield” value in series [4] (1 mM GSH, first 112 min) is given as “roughly 75%”. The “NO generation with exclusion of the GSH” value in series [4] (10 mM phosphate buffer, no GSH) was “no NO generation was observed”. Further, in series [5], the Km was found to be 46.3 µM and the Vmax came out at 0.89 µM/min. This molecule registered a second-order rate constant in series [6] of 7.87 M⁻¹ min⁻¹.
